Laboratory results published in US11554120B2, “1H-pyrazolo[4,3-d]pyrimidine compounds as toll-like receptor 7 (TLR7) agonists and methods and uses therefor” (BRISTOL-MYERS SQUIBB COMPANY, priority 2018, dated 2023).

The molecules below were run against T1, human TLR7 (Homo sapiens, UniProt Q9NYK1) (assay: Human TLR7 agonist activity assay (HEK-Blue TLR7 SEAP reporter)). Conditions: HEK-Blue TLR7 cells, 18 h treatment, in some instances average of plural assays, read-out: hTLR7 EC50.
T1 construct: host or cells: HEK-Blue TLR7 cells (engineered human embryonic kidney cells)
T1 sequence (Q9NYK1 27-1049): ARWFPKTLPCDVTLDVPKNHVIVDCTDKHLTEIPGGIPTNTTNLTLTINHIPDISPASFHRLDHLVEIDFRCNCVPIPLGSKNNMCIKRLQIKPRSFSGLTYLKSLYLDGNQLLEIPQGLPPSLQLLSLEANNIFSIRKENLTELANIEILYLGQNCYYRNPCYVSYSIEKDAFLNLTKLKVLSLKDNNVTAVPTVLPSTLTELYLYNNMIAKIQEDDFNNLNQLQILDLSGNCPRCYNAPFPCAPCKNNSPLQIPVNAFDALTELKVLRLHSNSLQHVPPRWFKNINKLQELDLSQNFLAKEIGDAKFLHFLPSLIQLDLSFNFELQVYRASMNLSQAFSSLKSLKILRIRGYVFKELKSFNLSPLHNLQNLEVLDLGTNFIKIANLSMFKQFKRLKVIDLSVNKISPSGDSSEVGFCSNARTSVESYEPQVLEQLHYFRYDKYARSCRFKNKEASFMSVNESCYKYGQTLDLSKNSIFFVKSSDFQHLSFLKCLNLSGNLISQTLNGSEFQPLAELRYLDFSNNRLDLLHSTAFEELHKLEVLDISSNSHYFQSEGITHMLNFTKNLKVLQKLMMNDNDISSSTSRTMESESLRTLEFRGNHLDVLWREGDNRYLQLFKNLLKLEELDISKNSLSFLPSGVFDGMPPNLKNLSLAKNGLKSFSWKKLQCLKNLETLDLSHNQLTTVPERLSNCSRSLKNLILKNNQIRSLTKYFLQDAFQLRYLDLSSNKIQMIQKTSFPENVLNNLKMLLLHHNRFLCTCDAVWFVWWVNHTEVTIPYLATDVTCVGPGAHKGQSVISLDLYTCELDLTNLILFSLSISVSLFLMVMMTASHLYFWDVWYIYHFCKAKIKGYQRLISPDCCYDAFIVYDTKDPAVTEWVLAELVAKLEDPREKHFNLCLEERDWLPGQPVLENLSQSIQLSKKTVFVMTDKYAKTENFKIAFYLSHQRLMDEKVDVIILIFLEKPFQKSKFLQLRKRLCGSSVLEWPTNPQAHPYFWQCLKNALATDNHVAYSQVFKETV
Type: cell-based
Description: Human TLR7 Agonist Activity Assay
HEK-Blue™ TLR7 cells were added to each well of a 384-well tissue-culture plate (15,000 cells per well) and incubated 16-18 h at 37° C., 5% CO2. Compounds (100 nl) were dispensed into wells containing the HEK-Blue™ TLR cells and the treated cells were incubated at 37° C., 5% CO2. After 18 h treatment ten microliters of freshly-prepared Quanti-Blue™ reagent (Invivogen) was added to each well, incubated for 30 min (37° C., 5% CO2) and SEAP levels measured using an Envision plate reader (OD=620 nm).

Row | Compound | EC50 [nM]
1 | CCCCNc1nc(N)nc2cnn(Cc3ccc(CNC4CCC4)cc3F)c12 [Compound 853] | 420
2 | CCCCNc1nc(N)nc2cnn(Cc3ccc(Oc4ccc(CN5CCN(C)CC5)cc4)cc3OC)c12 [Compound 809] | 74.5
3 | CCCCNc1nc(N)nc2cnn(Cc3ccc(Oc4ccc(CNCC(C)(C)O)cc4)cc3OC)c12 [Compound 857] | 11.5
4 | CCCCNc1nc(N)nc2cnn(Cc3ccc(CN4CCCNCC4)cc3OC)c12 [Compound 845] | 21.2
5 | CCCCNc1nc(N)nc2cnn(Cc3ccc(CN4CCCC4)cc3OC)c12 [Compound 833] | 31.1
6 | CCCCNc1nc(N)nc2cnn(Cc3ccc(CN(C)CCCO)cc3OC)c12 [Compound 825] | 43.5
7 | COCCNc1nc(N)nc2cnn(Cc3ccc(CNC4CCC4)cc3OC)c12 [Compound 865] | 959
8 | CCCCNc1nc(N)nc2cnn(Cc3ccc(CNCC4CC(O)C4)cc3OC)c12 (stereo not shown) [Compound 807] | 2550
9 | CCCCNc1nc(N)nc2cnn(Cc3ccc(Oc4ccc(CNC5CCOCC5)cc4)cc3OC)c12 [Compound 858] | 10.8
10 | CCCCNc1nc(N)nc2cnn(Cc3ccc(Oc4ccc(CN5CCN(CCO)CC5)cc4)cc3OC)c12 [Compound 810] | 245
11 | CCCCNc1nc(N)nc2cnn(Cc3ccc(CN4CCCC4)cn3)c12 [Compound 851] | 1770
12 | CCCCNc1nc(N)nc2cnn(Cc3ccc(CNC(C)(C)C)cc3OC)c12 [Compound 828] | 98.7
13 | CCCCNc1nc(N)nc2cnn(Cc3ccc(CNC4CCC(O)CC4)cc3OC)c12 (stereo not shown) [Compound 806] | 41.4
14 | CCCCNc1nc(N)nc2cnn(Cc3ncc(CNC4CCOCC4)cc3OC)c12 [Compound 856] | 1160
15 | CCCCNc1nc(N)nc2cnn(Cc3ncc(CNC4CCC4)cc3OC)c12 [Compound 855] | 640
16 | CCCCNc1nc(N)nc2cnn(Cc3ccc(Oc4ccc(CNC5CCC5)cc4)cc3OC)c12 [Compound 860] | 19.5
17 | CCOCCNc1nc(N)nc2cnn(Cc3ccc(CNC4CCC4)cc3OC)c12 [Compound 864] | 216
18 | CCCCNc1nc(N)nc2cnn(Cc3ccc(CNC4(CO)CCCC4)cc3OC)c12 [Compound 820] | 121
19 | CCCCNc1nc(N)nc2cnn(Cc3ccc(CN4CCN(CCO)CC4)cn3)c12 [Compound 849] | 2030

Row | Compound | EC50 [nM]
20 | CCCCNc1nc(N)nc2cnn(Cc3ccc(CO)cc3OC)c12 [Compound 818] | 258
21 | CCCCNc1nc(N)nc2cnn(Cc3ccc(CN4CCN(CCO)CC4)cc3F)c12 [Compound 870] | 1800
22 | CCCCNc1nc(N)nc2cnn(Cc3ccc(CN4CC5CC4CN5)cn3)c12 (stereo not shown) [Compound 852] | 3170
23 | CCCCNc1nc(N)nc2cnn(Cc3ccc(CN4CCN(C)CC4)cc3OC)c12 [Compound 827] | 47.6
24 | CCCCNc1nc(N)nc2cnn(Cc3ccc(CNC4CC(O)C4)cc3OC)c12 (stereo not shown) [Compound 811] | 138
25 | CCCCNc1nc(N)nc2cnn(Cc3ccc(CC#N)cc3OC)c12 [Compound 873] | 253
26 | CCCCNc1nc(N)nc2cnn(Cc3ccc(CN4CC(CCO)C4)cc3OC)c12 [Compound 815] | 33.2
27 | CCCCNc1nc(N)nc2cnn(Cc3ccc(CNCC(C)(C)O)cc3OC)c12 [Compound 805] | 41.4
28 | CCC[C@@H](CCO)Nc1nc(N)nc2cnn(Cc3ccc(CN4CCN(CCO)CC4)cc3)c12 [Compound 879] | 370
29 | CCCCNc1nc(N)nc2cnn(Cc3ccc(Oc4ccc(CO)cc4)cc3OC)c12 [Compound 803] | 569
30 | CCCCNc1nc(N)nc2cnn(Cc3ccc(CN4CC5CNCC5C4)cc3OC)c12 (stereo not shown) [Compound 812] | 102
31 | CCCCNc1nc(N)nc2cnn(Cc3ccc(CN4CCN(CCO)CC4)cc3OC)c12 [Compound 823] | 21.5
32 | CCCCNc1nc(N)nc2cnn(Cc3ccc(CNC4CCC4)cc3OC)c12 [Compound 800] | 58.3
33 | CCCCNc1nc(N)nc2cnn(Cc3ccc(CN4CCCNCC4)cc3OC)c12 [Compound 821] | 33.8
34 | CCCCNc1nc(N)nc2cnn(Cc3ccc(CN4CCNCC4)cn3)c12 [Compound 850] | 1620
35 | CCCCNc1nc(N)nc2cnn(Cc3ccc(Oc4ccc(C(C)(C)O)cc4)nc3)c12 [Compound 829] | 1340
36 | CCC[C@@H](CCO)Nc1nc(N)nc2cnn(Cc3ccc(CN4CC(O)C4)cc3)c12 [Compound 878] | 1110
37 | CCCCNc1nc(N)nc2cnn(Cc3ccc(Oc4ccc(CNCCOC)cc4)cc3OC)c12 [Compound 808] | 157

The remaining lines, values ahead:

Row | EC50 [nM] | Compound
38 | 9.7 | CCC[C@@H](CCO)Nc1nc(N)nc2cnn(Cc3ccc(CNC4CCC4)cc3OC)c12 [Compound 841]
39 | 9.5 | CCC[C@@H](CCO)Nc1nc(N)nc2cnn(Cc3ccc(CN4CC(O)C4)cc3OC)c12 [Compound 863]
40 | 182 | CCCCNc1nc(N)nc2cnn(Cc3ccc(CNCCOC)cc3OC)c12 [Compound 826]
41 | 104 | CCCCNCc1ccc(Cn2ncc3nc(N)nc(NCCCC)c32)c(OC)c1 [Compound 831]
42 | 19.5 | CCC[C@@H](CCO)Nc1nc(N)nc2cnn(Cc3ccc(CNC4CC(C(C)(C)C)C4)cc3OC)c12 (stereo partly shown) [Compound 866]
43 | 58 | CCC[C@@H](CCO)Nc1nc(N)nc2cnn(Cc3ccc(CNC4CCC4)cc3)c12 [Compound 875]
44 | 4.6 | CCC[C@@H](CCO)Nc1nc(N)nc2cnn(Cc3ccc(CN4CCc5cnccc5C4)cc3OC)c12 [Compound 844]
45 | 27.8 | CCC[C@@H](CCO)Nc1nc(N)nc2cnn(Cc3ccc(CO)cc3OC)c12 [Compound 817]
46 | 190 | CCC[C@@H](CCO)Nc1nc(N)nc2cnn(Cc3ccc(CN4CC(OC)C4)cc3)c12 [Compound 877]
47 | 29.9 | CCC[C@@H](CCO)Nc1nc(N)nc2cnn(Cc3ccc(CN4CC5CNCC5C4)cc3OC)c12 (stereo partly shown) [Compound 834]
48 | 1.2 | CCC[C@@H](CCO)Nc1nc(N)nc2cnn(Cc3ccc(CN4CC(OC)C4)cc3OC)c12 [Compound 861]
49 | 39.6 | CCC[C@@H](CCO)Nc1nc(N)nc2cnn(Cc3ccc(CN4CCCNCC4)cc3OC)c12 [Compound 838]
50 | 242 | CCC[C@@H](CCO)Nc1nc(N)nc2cnn(Cc3ccc(CN4CC5CC4CN5)cc3OC)c12 (stereo partly shown) [Compound 839]
51 | 28.3 | CCC[C@@H](CCO)Nc1nc(N)nc2cnn(Cc3ccc(CN4CC(CCO)C4)cc3OC)c12 [Compound 842]
52 | 2050 | CCC[C@@H](CCO)Nc1nc(N)nc2cnn(Cc3ccc(CO)cc3)c12 [Compound 874]
53 | 187 | CCC[C@@H](CCNC(C)=O)Nc1nc(N)nc2cnn(Cc3ccc(CNC4(C)CCOCC4)cc3OC)c12 [Compound 847]
54 | 2.4 | CCC[C@@H](CCO)Nc1nc(N)nc2cnn(Cc3ccc(CNCc4ccncc4)cc3OC)c12 [Compound 837]
55 | 55.9 | CCC[C@@H](CCO)Nc1nc(N)nc2cnn(Cc3ccc(CN4C[C@@H]5C[C@H]4CN5)cc3OC)c12 [Compound 843]
56 | 11 | CCC[C@@H](CCO)Nc1nc(N)nc2cnn(Cc3ccc(CN4CC(F)(F)C4)cc3OC)c12 [Compound 862]
57 | 89 | CCC[C@@H](CCO)Nc1nc(N)nc2cnn(Cc3ccc(CN4CC5(CNC5)C4)cc3OC)c12 [Compound 835]
58 | 33 | CCC[C@@H](CCO)Nc1nc(N)nc2cnn(Cc3ccc(CNC4(C)CCOCC4)cc3OC)c12 [Compound 848]
59 | 32.7 | CCC[C@H](CCO)Nc1nc(N)nc2cnn(Cc3ccc(CNC4CCC4)cc3OC)c12 [Compound 872]
60 | 92.5 | CCCCNc1nc(N)nc2cnn(Cc3ccc(CNCCO)cc3OC)c12 [Compound 816]
61 | 43.8 | CCCCNc1nc(N)nc2cnn(Cc3ccc(Oc4ccc(CNCCO)cc4)cc3OC)c12 [Compound 802]
62 | 1.4 | CCC[C@@H](CCO)Nc1nc(N)nc2cnn(Cc3ccc(CN4CC(OC(C)C)C4)cc3OC)c12 [Compound 868]
63 | 15.3 | CCC[C@@H](CCO)Nc1nc(N)nc2cnn(Cc3ccc(Cn4ccnc4)cc3OC)c12 [Compound 836]
64 | 244 | CCCCNc1nc(N)nc2cnn(Cc3ccc(CNc4ccc(CCO)cc4)cc3OC)c12 [Compound 822]
